Measured values from PMC3432483 (Blood Cancer Journal, 2012).
Values belong to the compound of their own block, whether it stands above or below them.

Key:
primary AML cells [1] = assay: FMCA cytotoxicity, primary AML patient cells; format: cell-based, human
MV4-11 cells [2] = assay: FMCA cytotoxicity, MV4-11 cell line; format: cell-based, human
RPS6K = assay: 320-kinase panel screen, radiometric protein kinase assay, RPS6K; format: biochemical; settings: 1 μM
MV4-11 cells [3] = assay: Mouse hollow-fiber model, MV4-11; format: in vivo; settings: NMRI male mice, 15 mg/kg s.c. twice daily, 6 days
Plasma protein binding = format: in vitro ADME
[4] = system: HeLa, ACHN and NCI-H69 cell lines; assay: FMCA cytotoxicity, solid tumor cell lines; format: cell-based, human; settings: 72 h
MV4-11 cells [5] = assay: Apoptosis assay; format: cell-based, human; settings: 10 μM, up to 48 h
VEGFR2 = VEGFR2 (Homo sapiens, UniProt P35968); assay: Full dose-response kinase assay; format: biochemical
VEGFR2, sequence (P35968 20-1356): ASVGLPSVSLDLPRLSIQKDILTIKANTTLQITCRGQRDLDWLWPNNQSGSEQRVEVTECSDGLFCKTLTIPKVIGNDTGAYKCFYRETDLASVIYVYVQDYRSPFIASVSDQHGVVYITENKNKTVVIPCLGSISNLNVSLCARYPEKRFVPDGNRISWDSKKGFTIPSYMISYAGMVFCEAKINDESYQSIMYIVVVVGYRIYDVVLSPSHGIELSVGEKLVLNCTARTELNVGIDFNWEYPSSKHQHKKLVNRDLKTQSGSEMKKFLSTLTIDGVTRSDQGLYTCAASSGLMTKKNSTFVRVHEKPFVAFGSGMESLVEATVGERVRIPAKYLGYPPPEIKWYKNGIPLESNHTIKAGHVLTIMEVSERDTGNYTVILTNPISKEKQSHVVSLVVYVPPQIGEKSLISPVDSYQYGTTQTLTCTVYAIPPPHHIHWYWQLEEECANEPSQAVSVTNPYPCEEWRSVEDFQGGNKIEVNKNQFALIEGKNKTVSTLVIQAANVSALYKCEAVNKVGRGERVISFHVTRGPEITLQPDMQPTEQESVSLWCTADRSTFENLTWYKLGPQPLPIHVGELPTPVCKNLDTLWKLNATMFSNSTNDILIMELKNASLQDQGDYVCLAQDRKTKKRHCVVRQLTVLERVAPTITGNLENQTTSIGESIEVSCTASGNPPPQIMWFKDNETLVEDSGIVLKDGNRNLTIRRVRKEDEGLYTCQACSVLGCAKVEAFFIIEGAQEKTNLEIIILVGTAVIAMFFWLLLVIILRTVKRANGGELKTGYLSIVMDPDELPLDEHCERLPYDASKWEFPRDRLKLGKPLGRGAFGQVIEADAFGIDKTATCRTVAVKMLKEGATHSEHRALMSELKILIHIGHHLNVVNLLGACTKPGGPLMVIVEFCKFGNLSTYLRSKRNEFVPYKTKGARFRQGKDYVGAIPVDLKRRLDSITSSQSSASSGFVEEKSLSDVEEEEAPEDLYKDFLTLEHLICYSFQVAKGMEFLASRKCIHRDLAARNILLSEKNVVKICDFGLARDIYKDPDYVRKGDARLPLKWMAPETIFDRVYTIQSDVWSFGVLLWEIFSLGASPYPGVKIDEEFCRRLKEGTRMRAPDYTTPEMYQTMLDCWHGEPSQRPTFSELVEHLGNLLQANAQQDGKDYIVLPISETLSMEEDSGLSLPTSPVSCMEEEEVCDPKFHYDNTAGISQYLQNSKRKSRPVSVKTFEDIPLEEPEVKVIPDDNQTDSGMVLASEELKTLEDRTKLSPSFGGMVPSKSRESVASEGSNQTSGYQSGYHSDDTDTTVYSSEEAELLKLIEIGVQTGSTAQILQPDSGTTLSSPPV

CDC-like kinase 1 (CLK1) = CDC-like kinase 1 (CLK1) (Homo sapiens, UniProt P49759); assay: Full dose-response kinase assay; format: biochemical
CDC-like kinase 1 (CLK1), sequence (P49759 whole entry): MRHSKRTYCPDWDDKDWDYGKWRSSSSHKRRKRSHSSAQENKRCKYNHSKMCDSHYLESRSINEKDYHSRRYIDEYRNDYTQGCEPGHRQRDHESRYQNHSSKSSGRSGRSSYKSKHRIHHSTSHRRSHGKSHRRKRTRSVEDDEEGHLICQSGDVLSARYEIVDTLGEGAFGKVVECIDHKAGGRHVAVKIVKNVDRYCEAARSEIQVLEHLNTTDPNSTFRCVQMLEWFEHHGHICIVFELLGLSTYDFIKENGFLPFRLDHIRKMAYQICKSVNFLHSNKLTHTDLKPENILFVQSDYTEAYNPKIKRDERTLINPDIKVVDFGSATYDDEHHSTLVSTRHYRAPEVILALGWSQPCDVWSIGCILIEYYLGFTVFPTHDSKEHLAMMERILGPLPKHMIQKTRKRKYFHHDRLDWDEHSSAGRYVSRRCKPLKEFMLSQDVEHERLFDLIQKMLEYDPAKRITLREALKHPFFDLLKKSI

RPS6KA = assay: Full dose-response kinase assay; format: biochemical
MOLM-13 cells = assay: Alamar Blue cytotoxicity, MOLM-13 cells; format: cell-based; settings: Homo sapiens, MOLM-13, read-out: cytotoxic activity IC50, MOLM-13
primary AML cells [6] = assay: Mouse hollow-fiber model, primary AML cells; format: in vivo; settings: NMRI male mice, 15 mg/kg s.c. twice daily, 6 days
AKT 1, 2, 3 = assay: AKT radiometric protein kinase assay; format: biochemical; settings: 1 μM, 60 min
FGFR2 = FGFR2 (Homo sapiens, UniProt P21802); assay: biochemical
FGFR2, sequence (P21802 22-821): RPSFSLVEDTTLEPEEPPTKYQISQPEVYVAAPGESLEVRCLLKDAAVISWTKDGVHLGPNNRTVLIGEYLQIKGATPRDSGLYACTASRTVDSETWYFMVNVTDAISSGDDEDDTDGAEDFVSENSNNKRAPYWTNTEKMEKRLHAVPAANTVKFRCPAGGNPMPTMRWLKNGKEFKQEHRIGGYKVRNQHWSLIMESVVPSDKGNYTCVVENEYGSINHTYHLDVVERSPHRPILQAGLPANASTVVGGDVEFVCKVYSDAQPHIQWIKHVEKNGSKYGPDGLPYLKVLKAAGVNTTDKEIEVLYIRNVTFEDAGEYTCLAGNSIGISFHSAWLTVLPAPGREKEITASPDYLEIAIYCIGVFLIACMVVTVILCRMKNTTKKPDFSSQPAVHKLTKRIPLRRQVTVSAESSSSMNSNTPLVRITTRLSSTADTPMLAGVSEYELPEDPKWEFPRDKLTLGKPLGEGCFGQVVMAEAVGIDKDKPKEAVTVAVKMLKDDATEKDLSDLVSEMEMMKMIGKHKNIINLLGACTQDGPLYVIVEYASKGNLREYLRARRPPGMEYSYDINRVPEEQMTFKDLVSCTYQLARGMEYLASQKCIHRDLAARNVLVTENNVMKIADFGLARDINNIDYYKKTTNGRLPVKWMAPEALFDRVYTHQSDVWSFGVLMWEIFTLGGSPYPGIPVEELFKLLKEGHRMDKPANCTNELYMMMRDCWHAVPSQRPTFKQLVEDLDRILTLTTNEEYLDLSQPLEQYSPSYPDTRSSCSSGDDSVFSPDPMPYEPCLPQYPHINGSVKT

[7] = Pharmacokinetic studies in C57 black mice; format: in vivo, mouse
MV4-11 cells [8] = assay: Combination studies with cytarabine or daunorubicin
CLK kinases = assay: 320-kinase panel screen, radiometric protein kinase assay, CLK kinases; format: biochemical; settings: 1 μM, 60 min incubation
ERK 1, 2 = assay: ERK radiometric protein kinase assay; format: biochemical; settings: 1 μM, 60 min

inhibition of RPS6K in kinase-panel screen (RPS6K): did not inhibit
Compound: CC(C)(C)c1cc(NC(=O)Nc2ccc(-c3cn4c(n3)sc3cc(OCCN5CCOCC5)ccc34)cc2)no1 [AC220, reference compound]
cytotoxic response in primary AML samples (primary AML cells [1]; FMCA, 11 additional AML patient samples (UPN 14-24)): varied considerably
cytotoxic efficacy in MV4-11 (MV4-11 cells [2]; FMCA dose-response): full efficacy

fraction unbound (Plasma protein binding): 0.035
IC50 (VEGFR2): 520 nM
IC50 (CDC-like kinase 1 (CLK1)): 140 nM
IC50 RPS6KA (RPS6KA): 220 nℳ nM
inhibition of AKT 1, 2, 3 (AKT 1, 2, 3): No direct inhibition
IC50 (FGFR2): 1200 nM
plasma target concentration ([7]; IC90 divided by fraction unbound): 1 to 3 µM
predicted exposure time above plasma target concentration ([7]; hollow-fiber experiment, twice daily, target 1–3 μM): 1 h
remaining enzyme activity, RPS6K (RPS6K; 60 min incubation): Less than 20%
remaining enzyme activity, CLK kinases (CLK kinases): Less than 20%
inhibition of ERK 1, 2 (ERK 1, 2): No direct inhibition
Compound: Nc1ncc(-c2ccncc2)nc1Nc1ccc2[nH]ccc2c1 [AKN-028, N-3-(1H-indol-5-yl)-5-pyridin-4-yl-pyrazine-2,3-diamine]
IC50 (primary AML cells [1]; Homo sapiens, read-out: mean IC50, primary AML samples, n=15 samples): 1000 nM
net growth in hollow fibers, MV4-11 (MV4-11 cells [3]): reduced the tumor mass
IC50 (MV4-11 cells [2]; Homo sapiens, MV4-11, 72 h, read-out: cytotoxic activity IC50, MV4-11): < 50 nM
cytotoxic effect in solid tumor cell lines HeLa, ACHN and NCI-H69 [4]: Almost no effect
apoptosis / caspase 3 activation in MV4-11 (MV4-11 cells [5]): induced apoptosis by activation of caspase 3
IC50 (MOLM-13 cells): < 50 nM
net growth in hollow fibers, primary AML sample UPN25 (primary AML cells [6]): no significant inhibition
net growth in hollow fibers, primary AML sample UPN26 (primary AML cells [6]): inhibited net growth
drug interaction (mean combination index) with cytarabine (MV4-11 cells [8]; cytarabine simultaneously or 24 h before AKN-028, cytarabine:AKN-028 2.5:1): synergy
drug interaction (mean combination index) with daunorubicin (MV4-11 cells [8]; daunorubicin simultaneously or 24 h before AKN-028, daunorubicin:AKN-028 1:20): synergy
drug interaction (mean combination index) with cytarabine (MV4-11 cells [8]; pre-treated with AKN-028 24 h, followed by cytarabine): antagonism
drug interaction (mean combination index) with daunorubicin (MV4-11 cells [8]; pre-treated with AKN-028 24 h, followed by daunorubicin): antagonism
